Columns and labels:
ENO2 [1] = molecular target: T1, ENO2 (Homo sapiens, UniProt P09104); experiment: Enolase enzymatic activity and Michaelis-Menten kinetic analysis, ENO2
Protocol: Human ENO1 and ENO2 were overexpressed in the human D423 cell line and used for enzymatic assays. […] Enzymatic activity was measured by monitoring fluorescence of NADH at 340 nm Exitation/460 nm emission using an Lactate dehydrogenase/Pyruvate kinase linked assay which links the formation of PEP to the oxidation of NADH to NAD+, as we have described in published work (Muller et al., 2012). Enzymatic activity was normalized to that in the absence of the inhibitor (set to 1) and plotted as function of inhibitor concentration.
The Michaelis-Menten Kinetic analysis was performed using standard methods in the field such as those taught by Voet and Voet, 2011. The enzymatic activity of Enolase 1 or 2 v was determine over a concentration range of 10 mM to 0.5 mM 2-PG [S], in the presence of increasing concentrations of inhibitor [I].
Native lysates of mouse tissues and human cell lines were prepared using 20 mM Tris HCl, 1 mM EDTA, and 1 mM β-mercaptoethanol at pH 7.4 and homogenized using a Polytron homogenizer three times for a period of 10 s followed by sonication, after which the lysates were cleared by centrifugation at 20,000 g for 10 minutes. Enolase activity was measured using two different methods, either by a fluorometric NADH-linked assay or a direct spectrophotometric assay via formation of PEP. In the fluorescent assay, enolase activity was measured via NADH oxidation in a pyruvate kinase-lactate dehydrogenase coupled assay as previously described (Muller, et al., 2012). The assay is conducted in 10 mM KCl, 5 mM MgSO4, 100 mM triethanolamine at pH 7.4, with 400 μM NADH and 2 mM ADP. 2-Phosphoglycerate (2-PGA), pyruvate kinase (PK) and lactate dehydrogenase (LDH) are provided in excess, with conversion of 2-PGA to PEP by enolase being rate limiting. PEP (with ADP) is substrate of PK; pyruvate formed by this reaction is linked to NADH oxidation by LDH. Enolase activity is determined by measuring oxidation of NADH fluorescently by excitation at 340 nm and emission at 460 nm. The substrate concentration, if not otherwise indicated, was 5 mM 2-PGA. Fluorescence was measured using Omega Fluorescence Plate Reader (BMG Labtech). Alternatively, Enolase activity was measured directly by the appearance of PEP from 2-PGA via absorption at 240 nm (Marangos, et al., 1978). The assay medium was the same, except that all the auxiliary reagents (PK/LDH, NADH, ADP) are omitted. Both assays were conducted in a 96-well plated format with the direct assay performed in UV-transmissible plates.

[2] = test system: ATP levels in D423 ENO1-deleted glioma cells; experiment: ATP content (CellTiter-Glo); assay type: cell-based, human; conditions: 8 hours of treatment
Protocol: (§1) Cell proliferation of glioma cell lines was assayed either through crystal violet staining or by live-cell confluence measurements with the IncuCyte (Essen BioScience). Growth curves using the IncuCyte were generated by confluence imaging every 4 hours with duplicate replicates with an initial seeding of 1500 cells/well in 96-well plates. At the indicated time point, cells were fixed with 10% formalin and stained with crystal violet. Dye extraction was performed using 10% acetic acid solution, and absorbance was read at 595 nm. Apoptotic cells were counted by staining with YO-PRO®-1 Iodide (491/509, Life Technologies, Y3603). Apoptotic cells become permeable to YO-PRO®-1 while live cells are not stained. Alternatively, Propidium Iodide was employed (Life Technologies) instead of YO-PRO. Total cell number was quantified by Hoechst 33342 (Cat# H3570 Invitrogen). Cells were seeded as 2×10^3 cells/well in 96-well plates and treated in the presence or absence of doxycycline. On the day of apoptosis survey, old media was removed and each well was filled to 100 μl with fresh media. Hoechst and YO-PRO®-1 were mixed in 1:100 PBS and 10 μl of the mixture was added in each well gently without touching the cells for a final dilution of 1:1000 from stock. Plates were then incubated at 37° C. for 2 hours. Image capture and quantification was done by High Content Screening System—Operetta (Perkin Elmer). ATP content was measured with the luciferase/luciferin CellTiter-Glo® assay. Briefly, 100 μl of CellTiter-Glo® assay media was added to 96-well plates containing 100 μl of media and cells. Lysis was achieved by the […] in the buffer and vigorous pipetting, and luminescence was determined using an Omega Luminescence Plate Reader (BMG Labtech). Results were expressed relative to vehicle treated control.

[3] = test system: conversion of 13C-glucose to 13C-lactate in D423 ENO1-deleted glioma cells; experiment: 13C-NMR tracing of uniformly labeled 13C-glucose to 13C-lactate; conditions: 48 hours, 10 mM 13C-uniformly labeled glucose
Protocol: Glucose labeled with heavy, non-radioactive, ^13C at carbon C-1 and ^13C at all carbon atoms were purchased from Cambridge Isotopes (CLM-420-1 and CLM-1396, respectively). Glucose free DMEM media was supplemented with 10 mM ^13C-1 or ^13C-all labeled Glucose. NMR metabolic tracing was performed by substituting conventional DMEM medium with glucose free DMEM medium, to which ^13C-1 glucose (Cambridge Isotopes) was supplemented at 10 mM. […] After 4 days, conditioned media was extracted with 80% methanol at −80° C., lyophilized and resuspended in D2O. Proton-decoupled ^13C NMR spectra were acquired using a 500 MHZ Bruker instrument in the M. D. Anderson NMR core facility.

ENO2 [4] = molecular target: T1, ENO2; experiment: Thermal shift assay on recombinant human ENO2 expressed in E. coli; assay type: binding; set-up: DNA encoding full length Human Enolase 2 was cloned into pJL-H6 plasmid expression vector; His tag (pJL-H6) (C); made in house; host or cells: E. coli BL21 (DE3); conditions: 10 μM inhibitor
Protocol: (§2) Thermal shift assays were conducted as described in Martinez Molina, et al. (2013), on lysates of D423 cell line overexpressing ENO1 and ENO2, on recombinant human ENO1 and ENO2 purified from E. coli as well as intact D423 ENO2 overexpressing glioma cells. […] Lysates were diluted (1:100) in Enolase enzymatic activity buffer as mentioned above. Diluted lysates were treated with SF2312, PhAH or vehicle and heated on a C1000 Thermal cycler (Bio-rad) with a linear temperature gradient (50 to 82.5° C. in 2.5° C. increments) for 3 minutes (FIG. 24). The lysates were then centrifuged at 20,000 g for 10 minutes. Supernatant and pellet were then separated and NuPage LDS Sample buffer (Life Technologies # NP0007) was added. Western Blots were performed as described previously (Muller, et al., 2012). The following antibodies were used: ENO1 (Abcam # ab155102), ENO2 (Dako # M087301-2), Vinculin (EMD Millipore #05-386), pan-ENO (Santa Cruz Biotechnology, sc-7455) and TPI (Proteintech #10713-1-AP). Recombinant human ENO2: The same procedure was carried out on purified recombinant ENO2 from E. coli, utilizing the purified protein generated for the X-ray crystallography studies. […]

[5] = test system: Gli56 ENO1-deleted glioma cells; experiment: Cell proliferation by Incucyte, ten days; assay type: cell-based, human
Protocol: as §1, with “On the day of apoptosis survey, old media was removed and each well was filled to 100 μl with fresh media. Hoechst and YO-PRO®-1 were mixed in 1:100 PBS and 10 μl of the mixture was added in each well gently without touching the cells for a final dilution of 1:1000 from stock. Plates were then incubated at 37° C. for 2 hours.” left out, “Briefly, 100 μl of CellTiter-Glo® assay media was added to 96-well plates containing 100 μl of media and cells.” left out, “Results were expressed relative to vehicle treated control.” left out

[6] = test system: Vinculin or Triosephosphate isomerase; experiment: Thermal shift assay, internal controls; assay type: binding, human
Protocol: as §2

T1 sequence (P09104 whole entry): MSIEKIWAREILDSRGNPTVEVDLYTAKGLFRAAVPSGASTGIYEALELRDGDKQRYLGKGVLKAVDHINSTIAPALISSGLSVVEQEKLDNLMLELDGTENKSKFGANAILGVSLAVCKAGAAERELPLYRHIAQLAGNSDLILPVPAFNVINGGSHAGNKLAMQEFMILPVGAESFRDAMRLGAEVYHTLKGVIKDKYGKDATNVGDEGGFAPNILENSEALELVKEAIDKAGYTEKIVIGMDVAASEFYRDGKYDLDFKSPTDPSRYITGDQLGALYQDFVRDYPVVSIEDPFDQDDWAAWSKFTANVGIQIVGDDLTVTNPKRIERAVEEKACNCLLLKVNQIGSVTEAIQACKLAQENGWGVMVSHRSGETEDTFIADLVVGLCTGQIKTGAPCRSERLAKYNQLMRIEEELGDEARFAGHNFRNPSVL

`O=C1C(P(=O)(O)O)CC(O)N1O` (racemic) [SF2312, 3-dihydroxyphosphoryl-1,5-dihydroxy-2-pyrrolidone] was tested, and the IC50 (ENO2 [1]) was ~20 nM, the “potency against ENO2 versus ENO1 (IC50 lower / activity greater for ENO2)” value (ENO2 [1]; ENO2 over ENO1) was 10 fold and the “inhibition kinetics with respect to substrate 2-PGA” value (ENO2 [1]; SF2312: at IC50) was “non-competitive kinetics”. For the same compound, the “concentration reducing ATP levels by >40%” value [2] was 12.5 µM, the “fold more potent than PhAH at decreasing ATP levels” value [2] was ~8 fold and the “concentration sufficient to decrease the ratio of 13C Lactate/13C glucose by 70%” value [3] was 6.25 µM. For the same compound, the “thermal stabilization of recombinant ENO2” value (ENO2 [4]) was ~15 °C, the “fold more potent at inhibiting proliferation of Gli56 ENO1-deleted cells compared to ENO1-intact glioma lines” value [5] was ≤ 128 fold and the “effect on the thermal stability of the internal controls” value [6] was “neither PhAH nor SF2312 had any effect”.

— patent publication US10363261B2, “Enolase inhibitors and methods of treatment therewith” (Board of Regents, The University of Texas System, priority 2015, dated 2019)
